Test results published in ChEMBL document CHEMBL5725243, “Cyclopentylbenzamide derivatives and their use for the treatment of psychotic and cognitive disorders” (2016).

What was measured:
Orexin receptor type 2 = target: T1, Orexin receptor type 2 (Homo sapiens, UniProt O43614); assay: (§1) Fluorescent Imaging Plate Reader (FLIPR) Assay: Orexin antagonist activity was determined by measuring changes in intracellular calcium levels using a Ca2+ sensitive fluorescent dye. The changes in fluorescent signal were monitored by Fluorescent Imaging Plate Reader (FLIPR) technology available from Molecular Devices, LLC, U.S.A. Orexin mediated increases in intracellular Ca2+ concentration were readily detected upon activation with orexin-A. Twenty-four hours prior to the assay, RBL-2H3 cells stably expressing either human orexin receptor 1 or human orexin receptor 2 were seeded in cell culture medium in black, clear-bottom 384-well plates (commercially available from Corning Inc., U.S.A.) and grown overnight at 37° C., 5% CO2. On the day of the assay, cell culture media was removed and cells were loaded with Calcium 5 Dye (commercially sold by Molecular Devices, LLC, U.S.A.) for 1 hour at 37° C., 5% CO2. Test compounds (at 10 point half log concentration response curves from 10 uM) were added to cells for 15 minutes prior to the addition of orexin-A to all wells, to achieve a final concentration that produces approximately an 80% maximal response. The IC50 values were determined from ten point concentration response curves. Curves were generated using the average of two wells for each data point.; assay type: cell-based
T1 sequence (O43614 whole entry): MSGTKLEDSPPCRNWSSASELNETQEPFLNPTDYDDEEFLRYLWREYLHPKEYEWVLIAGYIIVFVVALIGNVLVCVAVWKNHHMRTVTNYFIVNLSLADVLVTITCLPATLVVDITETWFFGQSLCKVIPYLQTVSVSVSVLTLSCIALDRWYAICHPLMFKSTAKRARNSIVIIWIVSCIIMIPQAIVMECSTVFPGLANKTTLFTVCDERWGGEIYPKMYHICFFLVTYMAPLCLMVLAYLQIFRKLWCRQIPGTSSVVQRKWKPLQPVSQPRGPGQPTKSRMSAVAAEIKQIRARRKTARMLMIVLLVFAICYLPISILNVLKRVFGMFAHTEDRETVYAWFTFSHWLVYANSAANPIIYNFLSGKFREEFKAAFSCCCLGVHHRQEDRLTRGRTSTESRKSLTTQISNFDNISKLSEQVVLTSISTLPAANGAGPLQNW

[1] = target: T2, Orexin/Hypocretin receptor type 1 (Homo sapiens, UniProt O43613); assay: as §1; assay type: cell-based
T2 sequence (O43613 whole entry): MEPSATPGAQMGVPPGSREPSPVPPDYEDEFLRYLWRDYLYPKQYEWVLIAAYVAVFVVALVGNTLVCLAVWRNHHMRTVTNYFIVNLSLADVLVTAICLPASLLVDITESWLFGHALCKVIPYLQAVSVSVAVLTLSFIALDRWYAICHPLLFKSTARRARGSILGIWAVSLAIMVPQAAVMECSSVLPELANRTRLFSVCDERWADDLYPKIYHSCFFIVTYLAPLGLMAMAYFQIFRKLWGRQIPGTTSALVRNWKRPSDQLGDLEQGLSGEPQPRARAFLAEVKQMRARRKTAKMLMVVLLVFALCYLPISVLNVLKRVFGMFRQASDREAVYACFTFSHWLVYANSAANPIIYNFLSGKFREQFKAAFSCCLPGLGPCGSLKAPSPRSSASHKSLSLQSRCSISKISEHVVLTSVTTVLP

Row | IC50 (Orexin receptor type 2) [µM] | IC50 [1] [µM] | Compound
1 | > 10 | 0.024 | Cc1ccc(-n2nccn2)c(C(=O)N[C@H]2CCC[C@@H]2Nc2ncc3ccccc3n2)c1
2 | 1.2 | 0.13 | CCOc1cccc(OCC)c1C(=O)N[C@@H]1CCC[C@@H]1Nc1nc2ccccc2o1
3 | 1.4 | 0.22 | COc1cccc(OC)c1C(=O)N[C@@H]1COC[C@@H]1Nc1nc2ccc(Cl)cc2s1 (relative stereo)
